In patent publication US9585865B2, “Small molecule modulators of the cold and menthol receptor TRPM8” (B.R.A.I.N. Biotechnology Research and Information Network AG, priority 2011, dated 2017):
Several values for one entry are separate records, joined by “and”; a condition that tells them apart may be missing. Equal entries are not always repeated.

Experiments:
human TRPM8 = target: T1, human TRPM8 (Homo sapiens, UniProt Q7Z2W7); test: functional cell based calcium assay, cells recombinantly expressing human TRPM8; settings: for EC50: activator (agonist) of TRPM8, intracellular calcium, calcium-sensitive dye fluorescence; for EC50 as activator of TRPM8 times lower than EC50 as activator of TRPA1: ratio EC50 TRPA1 / EC50 TRPM8
T1 construct: expressed in transfected cells; host or cells: HEK293 (human cells)
Excerpt: (§1) As used herein, a functional cell based assay under standard conditions means evaluating the cellular activity of compounds with regard to the modulation of the intracellular calcium level using cells recombinantly expressing human TRPM8 or human TRPA1. In particular, in this context the term “standard conditions” means an activity test using HEK293 cells recombinantly expressing either human TRPM8 or human TRPA1, which cells have been contacted with a calcium-sensitive dye (such as Fluo-4AM, i.e. Fluo-4-acetoxymethylester), wherein the cells are incubated with the compound to be tested, and receptor modulation is quantitatively detected by calcium-dependent changes is fluorescence intensity. Such a test system is disclosed, inter alia, in Behrendt H J et al., Br. J. Pharmacol. 2004, 141:737-745, which is enclosed herein by reference.
(§2) A screening for novel modulators of TRPM8 was conducted. For the screening, a routine screening setup was used. In particular, the compounds comprised by a compound library were tested for agonistic activity towards TRPM8 and a dose response analysis of the most promising candidates was conducted (TRPM8 versus TRPA1). In particular, promising candidates were analyzed with regard to their EC50 values as well as their efficacy values, and 7 development candidates were selected (i.e. Compounds I.3, II.3, III.3, IV.3, V.3, VI.3, and VII.3, as described herein above).
(§3) For the above analysis, a functional cell based assay under standard conditions as described herein was used, i.e. the cellular activity of the compounds with regard to the modulation of the intracellular calcium level was evaluated using cells recombinantly expressing human TRPM8 or human TRPA1. In particular, human cells recombinantly expressing either human TRPM8 or human TRPA1 were used, which cells have been contacted with a calcium-sensitive dye, wherein the cells were incubated with the compound to be tested, and receptor modulation was quantitatively detected by calcium-dependent changes in fluorescence intensity. Such a test system is disclosed, inter alia, in Behrendt H J et al., Br. J. Pharmacol. 2004, 141:737-745, which is enclosed herein by reference. Such a test system is also disclosed, inter alia, in WO 2010/026094, which is also enclosed herein by reference. However, it should be understood that any screening method and method suitable for evaluating the agonistic activity of compounds towards a channel (such as TRPM8) can be used. Suitable methods are routine and known to the skilled person.

human TRPA1 = target: T2, human TRPA1 (Homo sapiens, UniProt O75762); test: functional cell based calcium assay, cells recombinantly expressing human TRPA1; settings: activator (agonist) of TRPA1; intracellular calcium, calcium-sensitive dye fluorescence
T2 construct: expressed in transfected cells; host or cells: HEK293 (human cells)
Excerpt: as §1, §2, §3

T1 sequence (Q7Z2W7 whole entry): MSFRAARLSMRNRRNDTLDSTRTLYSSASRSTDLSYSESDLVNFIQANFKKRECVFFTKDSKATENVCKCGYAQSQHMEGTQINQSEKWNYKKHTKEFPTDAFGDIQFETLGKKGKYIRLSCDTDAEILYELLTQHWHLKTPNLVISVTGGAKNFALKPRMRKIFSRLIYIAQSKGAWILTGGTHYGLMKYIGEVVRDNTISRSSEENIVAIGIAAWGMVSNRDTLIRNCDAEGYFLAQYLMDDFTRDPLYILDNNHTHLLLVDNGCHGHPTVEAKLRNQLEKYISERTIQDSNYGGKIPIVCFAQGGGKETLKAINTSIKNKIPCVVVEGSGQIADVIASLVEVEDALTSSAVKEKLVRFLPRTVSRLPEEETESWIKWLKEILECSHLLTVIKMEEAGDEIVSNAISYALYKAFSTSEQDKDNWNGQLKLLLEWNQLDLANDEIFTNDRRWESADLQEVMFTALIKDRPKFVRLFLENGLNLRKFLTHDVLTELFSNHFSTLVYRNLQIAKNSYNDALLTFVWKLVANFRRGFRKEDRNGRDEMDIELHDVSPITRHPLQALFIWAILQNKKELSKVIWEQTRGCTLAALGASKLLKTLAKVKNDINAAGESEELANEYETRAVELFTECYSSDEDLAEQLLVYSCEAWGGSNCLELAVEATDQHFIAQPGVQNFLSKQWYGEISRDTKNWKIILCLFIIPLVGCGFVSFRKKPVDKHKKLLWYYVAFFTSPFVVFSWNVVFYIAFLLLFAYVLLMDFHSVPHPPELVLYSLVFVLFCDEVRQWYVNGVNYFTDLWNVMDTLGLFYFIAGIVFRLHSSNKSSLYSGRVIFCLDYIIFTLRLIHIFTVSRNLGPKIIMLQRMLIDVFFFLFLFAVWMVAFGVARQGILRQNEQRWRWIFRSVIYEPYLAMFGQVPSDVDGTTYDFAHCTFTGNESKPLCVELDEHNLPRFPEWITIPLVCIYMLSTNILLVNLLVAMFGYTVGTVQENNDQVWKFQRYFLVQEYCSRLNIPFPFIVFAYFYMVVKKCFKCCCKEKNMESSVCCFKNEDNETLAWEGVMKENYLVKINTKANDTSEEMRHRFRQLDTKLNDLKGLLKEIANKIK
T2 sequence (O75762 whole entry): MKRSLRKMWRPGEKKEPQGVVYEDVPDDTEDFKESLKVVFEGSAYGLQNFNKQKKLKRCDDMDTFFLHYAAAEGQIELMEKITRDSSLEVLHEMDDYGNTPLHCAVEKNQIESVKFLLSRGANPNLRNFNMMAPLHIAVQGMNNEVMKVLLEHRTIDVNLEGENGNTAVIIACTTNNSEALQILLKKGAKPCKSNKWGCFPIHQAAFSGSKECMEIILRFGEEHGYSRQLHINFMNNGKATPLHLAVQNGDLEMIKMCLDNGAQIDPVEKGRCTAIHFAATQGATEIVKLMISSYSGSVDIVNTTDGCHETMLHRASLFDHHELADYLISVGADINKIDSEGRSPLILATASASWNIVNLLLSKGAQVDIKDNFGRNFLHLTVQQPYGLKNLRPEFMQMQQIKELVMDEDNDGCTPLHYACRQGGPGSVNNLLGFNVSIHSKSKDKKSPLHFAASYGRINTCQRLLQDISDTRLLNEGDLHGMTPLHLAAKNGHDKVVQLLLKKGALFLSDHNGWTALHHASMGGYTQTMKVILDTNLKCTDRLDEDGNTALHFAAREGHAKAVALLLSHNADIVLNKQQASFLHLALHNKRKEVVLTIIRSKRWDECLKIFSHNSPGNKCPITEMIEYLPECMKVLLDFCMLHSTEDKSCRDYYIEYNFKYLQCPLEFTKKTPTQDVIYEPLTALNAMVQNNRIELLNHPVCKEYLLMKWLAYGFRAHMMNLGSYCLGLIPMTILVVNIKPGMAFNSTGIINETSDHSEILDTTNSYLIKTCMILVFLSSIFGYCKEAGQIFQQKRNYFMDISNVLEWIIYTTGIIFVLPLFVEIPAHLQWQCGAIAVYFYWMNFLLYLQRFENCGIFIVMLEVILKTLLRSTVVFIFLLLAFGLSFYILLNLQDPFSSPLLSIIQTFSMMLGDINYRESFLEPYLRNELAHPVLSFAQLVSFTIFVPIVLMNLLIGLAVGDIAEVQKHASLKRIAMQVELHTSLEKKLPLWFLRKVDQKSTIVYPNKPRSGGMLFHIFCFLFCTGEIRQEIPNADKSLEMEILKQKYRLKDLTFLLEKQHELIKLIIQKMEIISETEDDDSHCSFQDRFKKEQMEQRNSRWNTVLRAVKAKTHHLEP

EC50 (human TRPM8)	EC50 as activator of TRPM8 times lower than EC50 as activator of TRPA1 (human TRPM8)	EC50 (human TRPA1)	SMILES
~2.01 µM and 2.01 µM	about 36 times	~72.4 µM and 72.4 µM	COc1ccc2c(=O)c(-c3ccccc3)c(C)oc2c1 [Compound I.3, 7-methoxy-2-methyl-3-phenyl-4H-chromen-4-one]
~8.01 µM and 8.01 µM	about 15.4 times	~123 µM and 123 µM	COc1ccc(OC)c(NC=C2C(=O)CC(C)(C)CC2=O)c1 [Compound II.3, 2-{[(2,5-dimethoxyphenyl)amino]methylidene}-5,5-dimethylcyclohexane-1,3-dione]
~5.27 µM and 5.27 µM	about 21.5 times	~113 µM and 113 µM	Cc1ccc(-c2cc(C(=O)N/N=C/c3ccncc3)[nH]n2)s1 [Compound III.3, 3-(5-methylthiophen-2-yl)-N′-[(1E)-pyridin-4-ylmethylidene]-1H-pyrazole-5-carbohydrazide]
~4.12 µM and 4.12 µM	about 28.6 times	~118 µM and 118 µM	CCCc1cc(=O)[nH]c(SCC(=O)Nc2cc(Cl)ccc2Cl)n1 [Compound IV.3, N-(2,5-dichlorophenyl)-2-[(6-oxo-4-propyl-1,6-dihydropyrimidin-2-yl)sulfanyl]acetamide]
~7.53 µM and 7.53 µM	about 18.4 times	~138 µM and 138 µM	Cc1nc2ccccc2n1CCC(=O)N1CCN(Cc2ccc3c(c2)OCO3)CC1 [Compound V.3, 1-[4-(2H-1,3-benzodioxol-5-ylmethyl)piperazin-1-yl]-3-(2-methyl-1H-1,3-benzodiazol-1-yl)propan-1-one]
~8.15 µM and 8.15 µM	about 13.2 times	~108 µM and 108 µM	Cc1ccc(C(=O)NCC2(c3ccccc3)CCOCC2)cc1 [Compound VI.3, 4-methyl-N-[(4-phenyloxan-4-yl)methyl]benzamide]
~10.9 µM and 10.9 µM	about 5.2 times	~56.6 µM and 56.6 µM	CC(C)C(CCNCCCN(C)C)c1ccc(Cl)cc1 (stereo not drawn) [Compound VII.3, [3-(4-chlorophenyl)-4-methylpentyl][3-(dimethylamino)propyl]amine]
